Experimental data published in patent publication US20210261636A1, “NEOANTIGENS EXPRESSED IN MULTIPLE MYELOMA AND THEIR USES” (Janssen Biotech, Inc., priority 2020, published 2021).

Columns and labels:
CD4+ T cells = test: Exogenous autologous healthy donor restimulation assay, TNFα and IFNγ production by CD4+ T cells; type: cell-based, human; set-up: Frequency (TNFα+ IFNγ+ CD4 T cells): unit not given here; settings: donor independent, peptide pool 10 μg/mL, healthy donors; for Fold change (CD4+) vs. DMSO: maximum CD4+ T-cell response (TNFα and IFNγ); for Frequency (TNFα+ IFNγ+ CD4 T cells): maximum CD4+ T-cell response
Experimental: (§1) Immunogenicity responses were measured by estimating TNFα IFNγ double positive cells in the CD4+ and/or CD8+ T-cell populations. A response is considered positive if TNFα IFNγ double positive fraction was greater than or equal to three-fold over unstimulated cells (DMSO negative control) with a minimum frequency >=0.01%. […]
(§2) Overlapping 15-mer peptides were designed to span each indicated neoantigen. Their ability to activate T cells was assessed using known methods, such as the assay defnied as exogenous autologous normal donor restimulation assay. The peptides were used as pools using TNFα and IFNγ production by CD8^+ and CD4^+ T cells as a readout. Maximum frequency of CD8^+TNFα^+IFNγ^+ and CD4^+TNFα^+IFNγ^+ T cells and maximum fold change over background for each pool of peptides were analyzed, which were calculated as the highest frequency of CD8^+ TNFα^+IFNγ^+ and CD4^+ TNFα^+IFNγ^+ T cells and resulting fold change across the normal donors evaluated for the peptide.
(§3) CD1c+Dendritic Cells (CD1c+DC) isolated from human healthy PBMCs were thawed using media (IMDM (Gibco) supplemented with glutamine, HEPES, 5% human serum (Sigma), and 1× Pen-Strep). DC cells were resuspended in media supplemented with IL-4 (Peprotech, 20 ng/mL) and GM-CSF (Gibco, 20 ng/mL), plated in 6 well microplates, and rested overnight at 37° C. and 5% CO2 incubator. The following day, DC cells were counted and plated in a 96 well round bottom microplate at a concentration of 30,000 viable cells per well. Lyophilized neoantigen peptide pools (15-mer peptides with 8-mer overlapping peptide sequences) were solubilized in 100% DMSO with a stock concentration of 20 mg/mL Neoantigen peptides pools were added to DCs for a final concentration of 10 μg/mL and rested for 2 hours at 37° C. and 5% CO2 incubator. CEF Peptide Pool “Plus” (Cellular Technologies, Ltd.) was utilized as a positive control (each viral peptide at a final concentration of 4 ug/ml) and DMSO at the same final concentration (0.05%) as the experimental peptides was utilized as a negative control. After 2 hours, DC cells were irradiated with 50 gray of ionizing radiation. Autologous CD3+ Pan-T cells isolated from human normal PBMCs were thawed using media. Following irradiation, autologous Pan-T cells were added to the irradiated DCs at 300,000 viable cells per well. Human IL-15 (Peprotech) was added to all wells at final concentration of 10 ng/ml. Plates were incubated at 37° C. and 5% CO2 incubator for a total of 12 days. Media was refreshed every 2-3 days with IL-15 (R&D System, 10 ng/mL final concentration) and IL-2 (R&D systems, 10 IU/mL final concentration).
(§4) On Day 11, cells were re-stimulated with identical experimental peptide pools or controls, at same concentration as peptide stimulation on Day 1. Protein Inhibitor Cocktail (eBioscience) was added to every well and plate was incubated overnight for 14-16 hours at 37° C. and 5% CO2 incubator. On Day 12, cells were stained for surface and intracellular flow cytometry analysis. The cells were washed with PBS and stained with Live/Dead Fixable Aqua Dead Cell stain (Thermo-Fisher). Following the live/dead stain, cells were blocked using Biotin-Free Fc Receptor Blocker (Accurate Chemical & Scientific Corp). Extracellular cellular flow panel (1 μL/antibody per well in 50 μL) consisted of CD3 PerCP-Cy5.5 (Biolegend), CD4 BV421 (Biolegend), and CD8 APC-Cy7 (Biolegend). After extracellular staining, cells were fixed and permeabilized using Foxp3/Transcription Factor Staining Buffer Set (eBioscience) and stained for intracellular proteins (1:50 dilution) using TNFα FITC (R&D Systems) and IFNγ BV785 (Biolegend). Cells were washed and resuspended in stain buffer, analyzed, and recorded in a BD Celesta flow cytometer.
(§5) Flow cytometry analysis was conducted on FlowJo v10.6 software. Cells were gated on live, singlet, CD3+, CD4+ and CD8+ T cells. The CD8+ and CD4+ T cells were analyzed for TNFα and IFNγ expression. […]

CD8+ T cells = test: Exogenous autologous healthy donor restimulation assay, TNFα and IFNγ production by CD8+ T cells; type: cell-based, human; set-up: Frequency (TNFα+ IFNγ+ CD8 T cells): unit not given here; settings: for Fold change (CD8+) vs. DMSO: maximum CD8+ T-cell response (TNFα and IFNγ); for Fold change (CD8+) vs. DMSO / Frequency (TNFα+ IFNγ+ CD8 T cells): donor independent, peptide pool 10 μg/mL, healthy donors; for Frequency (TNFα+ IFNγ+ CD8 T cells): maximum CD8+ T-cell response; for Immunogenic (yes/no): positive if CD8+ and/or CD4+ double positive TNFα/IFNγ frequency >=3-fold over DMSO and at least 0.01%
Experimental: as §1, §2, §3, §4, §5

Sequence: KKEDVNFQVKQLIH [AS96, alternative splicing, ANKRD28]
- Fold change (CD4+) vs. DMSO (CD4+ T cells): 5.47
- Frequency (TNFα+ IFNγ+ CD4 T cells) (CD4+ T cells): 0.027
- Fold change (CD8+) vs. DMSO (CD8+ T cells): 7.34
- Frequency (TNFα+ IFNγ+ CD8 T cells) (CD8+ T cells): 0.15
- Immunogenic (yes/no) (CD8+ T cells): Yes

Sequence: KLLYEVSQKMVL [AS50, alternative splicing, PDZRN4]
- Fold change (CD4+) vs. DMSO (CD4+ T cells): 8.29
- Frequency (TNFα+ IFNγ+ CD4 T cells) (CD4+ T cells): 0.041
- Fold change (CD8+) vs. DMSO (CD8+ T cells): 3.032
- Frequency (TNFα+ IFNγ+ CD8 T cells) (CD8+ T cells): 0.038
- Immunogenic (yes/no) (CD8+ T cells): Yes

Sequence: KRYGCVFQVSIRHLSFPVTDILP [AS77, alternative splicing, TRAF3]
- Fold change (CD4+) vs. DMSO (CD4+ T cells): 7.547
- Frequency (TNFα+ IFNγ+ CD4 T cells) (CD4+ T cells): 0.046
- Fold change (CD8+) vs. DMSO (CD8+ T cells): 369.64
- Frequency (TNFα+ IFNγ+ CD8 T cells) (CD8+ T cells): 1.12
- Immunogenic (yes/no) (CD8+ T cells): Yes

Sequence: LARQISFKSLI [FUS14, gene fusion UBE2J1-> GABRR2]
- Fold change (CD4+) vs. DMSO (CD4+ T cells): 256.93
- Frequency (TNFα+ IFNγ+ CD4 T cells) (CD4+ T cells): 0.19
- Fold change (CD8+) vs. DMSO (CD8+ T cells): 3.27
- Frequency (TNFα+ IFNγ+ CD8 T cells) (CD8+ T cells): 0.005
- Immunogenic (yes/no) (CD8+ T cells): Yes

Sequence: LDPPHDEKALACPQWTLLWIFWTAKAL [AS95, alternative splicing, WDR64]
- Fold change (CD4+) vs. DMSO (CD4+ T cells): 19.58
- Frequency (TNFα+ IFNγ+ CD4 T cells) (CD4+ T cells): 0.014
- Fold change (CD8+) vs. DMSO (CD8+ T cells): 1.58
- Frequency (TNFα+ IFNγ+ CD8 T cells) (CD8+ T cells): 0.13
- Immunogenic (yes/no) (CD8+ T cells): Yes

Sequence: LDQCVETLCSLSKSD [FUS44, gene fusion ZGPAT-> LIME1]
- Fold change (CD4+) vs. DMSO (CD4+ T cells): 4.8
- Frequency (TNFα+ IFNγ+ CD4 T cells) (CD4+ T cells): 0.024
- Fold change (CD8+) vs. DMSO (CD8+ T cells): 4.82
- Frequency (TNFα+ IFNγ+ CD8 T cells) (CD8+ T cells): 0.097
- Immunogenic (yes/no) (CD8+ T cells): Yes

Sequence: LEDKELGRISVCPWTEGLEKMEKTLLCSSSG [AS88, alternative splicing, CADPS2]
- Fold change (CD4+) vs. DMSO (CD4+ T cells): 79.18
- Frequency (TNFα+ IFNγ+ CD4 T cells) (CD4+ T cells): 0.12
- Fold change (CD8+) vs. DMSO (CD8+ T cells): 4.55
- Frequency (TNFα+ IFNγ+ CD8 T cells) (CD8+ T cells): 0.025
- Immunogenic (yes/no) (CD8+ T cells): Yes

Sequence: LGRLEEAKSFETEEN [AS121, alternative splicing, OGT]
- Fold change (CD4+) vs. DMSO (CD4+ T cells): 1.41
- Frequency (TNFα+ IFNγ+ CD4 T cells) (CD4+ T cells): 0.02
- Fold change (CD8+) vs. DMSO (CD8+ T cells): 194.72
- Frequency (TNFα+ IFNγ+ CD8 T cells) (CD8+ T cells): 0.59
- Immunogenic (yes/no) (CD8+ T cells): Yes

Sequence: LGRLEEAKVPLKMLLF [AS122, alternative splicing, OGT]
- Fold change (CD4+) vs. DMSO (CD4+ T cells): 13.71
- Frequency (TNFα+ IFNγ+ CD4 T cells) (CD4+ T cells): 0.048
- Fold change (CD8+) vs. DMSO (CD8+ T cells): 3.63
- Frequency (TNFα+ IFNγ+ CD8 T cells) (CD8+ T cells): 0.044
- Immunogenic (yes/no) (CD8+ T cells): Yes

Sequence: LLPPGQESAIIGPPGMQ [FUS45, gene fusion IFNAR2-> IL10RB]
- Fold change (CD4+) vs. DMSO (CD4+ T cells): 10.56
- Frequency (TNFα+ IFNγ+ CD4 T cells) (CD4+ T cells): 0.1
- Fold change (CD8+) vs. DMSO (CD8+ T cells): 88.8
- Frequency (TNFα+ IFNγ+ CD8 T cells) (CD8+ T cells): 0.43
- Immunogenic (yes/no) (CD8+ T cells): Yes

Sequence: LQAILQPGNFILVNEI [AS5, alternative splicing, C3orf79]
- Fold change (CD4+) vs. DMSO (CD4+ T cells): 19.14
- Frequency (TNFα+ IFNγ+ CD4 T cells) (CD4+ T cells): 0.14
- Fold change (CD8+) vs. DMSO (CD8+ T cells): 4.64
- Frequency (TNFα+ IFNγ+ CD8 T cells) (CD8+ T cells): 0.068
- Immunogenic (yes/no) (CD8+ T cells): Yes

Sequence: LRYLIHLRKWKIK [FUS55, gene fusion FAM214A-> ARPP19]
- Fold change (CD4+) vs. DMSO (CD4+ T cells): 74.67
- Frequency (TNFα+ IFNγ+ CD4 T cells) (CD4+ T cells): 0.056
- Fold change (CD8+) vs. DMSO (CD8+ T cells): 13.57
- Frequency (TNFα+ IFNγ+ CD8 T cells) (CD8+ T cells): 0.38
- Immunogenic (yes/no) (CD8+ T cells): Yes

Sequence: LTALLLLASTPTP [AS18, alternative splicing, FCRLB]
- Fold change (CD4+) vs. DMSO (CD4+ T cells): 12.922
- Frequency (TNFα+ IFNγ+ CD4 T cells) (CD4+ T cells): 0.006
- Fold change (CD8+) vs. DMSO (CD8+ T cells): 7.33
- Frequency (TNFα+ IFNγ+ CD8 T cells) (CD8+ T cells): 0.082
- Immunogenic (yes/no) (CD8+ T cells): Yes

Sequence: LVARPEIQIFMEEDVMKVE [AS124, alternative splicing, PDZRN4]
- Fold change (CD4+) vs. DMSO (CD4+ T cells): 7.31
- Frequency (TNFα+ IFNγ+ CD4 T cells) (CD4+ T cells): 0.064
- Fold change (CD8+) vs. DMSO (CD8+ T cells): 5.27
- Frequency (TNFα+ IFNγ+ CD8 T cells) (CD8+ T cells): 0.089
- Immunogenic (yes/no) (CD8+ T cells): Yes

Sequence: MDLTAIYEDSAGPLSHA [FUS54, gene fusion ZFP36-> PLEKHG2]
- Fold change (CD4+) vs. DMSO (CD4+ T cells): 9.66
- Frequency (TNFα+ IFNγ+ CD4 T cells) (CD4+ T cells): 0.063
- Fold change (CD8+) vs. DMSO (CD8+ T cells): 15.176
- Frequency (TNFα+ IFNγ+ CD8 T cells) (CD8+ T cells): 2.58
- Immunogenic (yes/no) (CD8+ T cells): Yes

Sequence: MDLTAIYETMQIFVKT [FUS30, gene fusion ZFP36-> UBC]
- Fold change (CD4+) vs. DMSO (CD4+ T cells): 51.81
- Frequency (TNFα+ IFNγ+ CD4 T cells) (CD4+ T cells): 0.1
- Fold change (CD8+) vs. DMSO (CD8+ T cells): 3.5
- Frequency (TNFα+ IFNγ+ CD8 T cells) (CD8+ T cells): 0.13
- Immunogenic (yes/no) (CD8+ T cells): Yes

Sequence: MEPTTKRGPGGTMVSAAAPS [FUS52, gene fusion SELPLG-> TMEM119]
- Fold change (CD4+) vs. DMSO (CD4+ T cells): 6.831
- Frequency (TNFα+ IFNγ+ CD4 T cells) (CD4+ T cells): 0.02
- Fold change (CD8+) vs. DMSO (CD8+ T cells): 46.95
- Frequency (TNFα+ IFNγ+ CD8 T cells) (CD8+ T cells): 2.09
- Immunogenic (yes/no) (CD8+ T cells): Yes

Sequence: MKQFLDFGECGPGPWAFLRGPGRGAAAAAPGRVGAGQLSPEAHPSSSAFPPPAP [AS10, alternative splicing, PDK1]
- Fold change (CD4+) vs. DMSO (CD4+ T cells): 76.818
- Frequency (TNFα+ IFNγ+ CD4 T cells) (CD4+ T cells): 0.028
- Fold change (CD8+) vs. DMSO (CD8+ T cells): 70.588
- Frequency (TNFα+ IFNγ+ CD8 T cells) (CD8+ T cells): 12
- Immunogenic (yes/no) (CD8+ T cells): Yes

Sequence: NASLHEVKDFFVPFPLPLLHLTSLKRNKLFN [AS110, alternative splicing, CCDC88A]
- Fold change (CD4+) vs. DMSO (CD4+ T cells): 36.021
- Frequency (TNFα+ IFNγ+ CD4 T cells) (CD4+ T cells): 0.21
- Fold change (CD8+) vs. DMSO (CD8+ T cells): 228.56
- Frequency (TNFα+ IFNγ+ CD8 T cells) (CD8+ T cells): 4.21
- Immunogenic (yes/no) (CD8+ T cells): Yes

Sequence: NAVRSYYEGTENIVAV [FUS18, gene fusion CADPS2-> RNF148]
- Fold change (CD4+) vs. DMSO (CD4+ T cells): 0.95
- Frequency (TNFα+ IFNγ+ CD4 T cells) (CD4+ T cells): 0.005
- Fold change (CD8+) vs. DMSO (CD8+ T cells): 542.51
- Frequency (TNFα+ IFNγ+ CD8 T cells) (CD8+ T cells): 0.671
- Immunogenic (yes/no) (CD8+ T cells): Yes
